{"source": "patent US6177475A", "about": "“Methods of using integrin modulators for treatment of inflammation” (priority 1997, dated 2001)", "key": {"H9 cells": {"tested_on": "H9 cells", "experiment": "Disruption of cell clusters formed by H9 cells in culture", "assay_type": "cell-based", "conditions": "Homo sapiens, 16 to 24 h", "procedure": "(§1) T-lymphocytic H9 and Jurkat cells were maintained as suspension cultures in RPMI-1640 medium supplemented with 10% (v/v) heat-inactivated fetal calf serum, 50 micrograms/ml gentamycin and 2 mM L-glutamine. To assess the effects of Ajoene on adhesive interactions of the cells, H9 cells or Jurkat cells were seeded in 96-well flat-bottomed plates (3×10^5cells per well) and cultured in the presence of log 10 dilutions of Ajoene (experiment) or its vehicle (control) for 16 to 24 h.\n(§2) The requirement of integrins for the formation of cell-to-cell contacts in each of these systems has long been established. It is known that in platelets the relevant integrin is GP IIb/IIIa (β3). Neutrophil aggregation is underlain by interactions of β2 integrins (e.g., LFA-1 and/or Mac-1) with their surface counterstructures, while cohesion of T-cells is supported by both β2 integrins and fibronectin-binding β1 integrins (e.g., VLA-4 and VLA-5)."}, "[1]": {"tested_on": "neutrophils (β2 integrins)", "experiment": "N-formyl-L-methionyl-L-leucyl-L-phenylalanine-stimulated neutrophil aggregation", "assay_type": "cell-based", "procedure": "Neutrophil aggregation was assayed as described above for the platelet system, with some modifications. Freshly isolated neutrophils were finally suspended in a buffer (120 mM NaCl, 4 mM KCl, 10 mM dextrose, 2 mM CaCl2·2H2 O, 2 mM MgCl2·6H2 O, and 20 mM Tris; pH 7.4) to the final density of 10^7 cells per ml. Aliquots of neutrophil suspension (0.25 ml in siliconized glass cuvettes; 10^7 cells per ml) were stirred in the cell of the aggregometer with 5 micrograms per ml cytochalasin B (1000 rpm, 37° C.) for 1 min. […] Maximum LT (100%) was calibrated with the same buffer.\nas §2"}, "[2]": {"tested_on": "VLA-4 (MV3 cells, VCAM-1)", "experiment": "VLA-4-dependent adhesion of human melanoma MV3 cells to VCAM-1", "assay_type": "cell-based", "conditions": "MV-3, 1 h, 37° C.", "procedure": "Microtiter plates were coated with ligands of the integrin VLA-4, i.e., recombinant human VCAM-1 (500 nanograms per well) or the fragment of connective segment of human fibronectin (CS-1), covalently attached to ovalbumin (5 micrograms per well) by overnight incubation (4° C.) with solutions of the proteins in phosphate-buffered saline (PBS). The plates were blocked with 1% bovine serum albumin (BSA) in Hanks' buffered salt solution (HBSS-BSA). The cells (Jurkat or human melanoma MV3) were labeled with the fluorescent dye 5-chloromethylfluorescein diacetate (CMFDA) and introduced into the wells of the plates (10^5 cells per well) together with varying amounts of Ajoene. After incubation at 37° C. for 1 h, the unbound cells were removed by aspiration and the wells washed four times with HBSS-BSA. Thereafter, the bound cells were lysed with 0.5% Triton X-100, and the fluorescence was measured using a Cytofluor 2300 plate reader. The number of adherent cells was calculated from a standard dilution curve of Triton X-100 lysates of the CMFDA-labeled cells."}, "MT-4 cells": {"tested_on": "MT-4 cells", "assay_type": "cell-based"}, "platelets (GP IIb/IIIa)": {"tested_on": "platelets (GP IIb/IIIa)", "experiment": "Platelet aggregation in platelet-rich plasma (turbidimetric)", "assay_type": "cell-based", "conditions": "1:1 mixture of E- and Z-stereoisomers, read-out: IC50 for inhibition of platelet aggregation in PRP", "procedure": "Platelet aggregation was measured turbidimetrically on a standard platelet aggregometer equipped with a recorder. Samples of platelet-rich plasma (PRP) were standardized with respect to the cell density (3×10^8per ml); maximal light transmission (LT) was calibrated with platelet-poorplasma (PPP). Aliquots of PRP (0.25 ml in glass cuvettes) were stirred in the cell of the device (1000 rpm, 37° C.) with Ajoene (0-100 micromoles per liter final concentration) for 1 min., followed by addition of the aggregation stimuli. (Unless specified otherwise, all the experiments described in this Application were performed with Ajoene that represented a 1:1 mixture of E- and Z-stereoisomers.) LT increments were traced for 5 min. Maximal rate of aggregation was derived from the slope of each curve; IC50 for Ajoene was determined by a method such as that described in Vrzheshch, et al., Cell Response Kinetics: the Phenomenon of Supercooperativity in Aggregation of Human Platelets, 66 Thrombos. Res. 537, 1992.\nThe requirement of integrins for the formation of cell-to-cell contacts in each of these systems has long been established. It is known that in platelets the relevant integrin is GP IIb/IIIa (β3). […]"}, "HIV-1RF": {"tested_on": "HIV-1RF", "experiment": "HIV-1RF replication in H9 cells (HIV antigens by solid phase immunoassay)", "assay_type": "cell-based", "conditions": "Human immunodeficiency virus 1, m.o.i. 0.1, 72 h"}, "[3]": {"tested_on": "111In-labeled neutrophils", "experiment": "Neutrophil recruitment to inflamed skin", "assay_type": "in vivo, rat", "conditions": "50 mg/kg i.v.; for Accumulation of 111In-labeled Neutrophils (mean ± SEM): 2 h", "from_the_text": "Chemotactic factors (e.g., C5adesArg) and cytokines, such as tumor necrosis factor α (TNF) or interferon gamma (IFN), induce rapid cutaneous inflammatory reactions, when injected intradermally. These inflammatory reactions are characterized by integrin-mediated migration of ^51 Cr-labeled monocytes and ^111 In-labeled neutrophils. The mechanisms of leukocyte recruitment to the inflammatory loci differ, however, in that chemotactic factors act primarily on leukocytes (by upregulating integrins), whereas TNF and IFN activate endothelial cells (which results, inter alia, in rapid expression of integrin ligands, such as ICAM-1 and VCAM-1).\nAgents used for the induction of the inflammation included rat IFN, recombinant mouse TNF (Genentech, South San Francisco, Calif.), and Zymozan-activated serum (ZAS). ZAS, a source of C5adesArg, was generated by activating complement in normal rat serum with 5 mg/ml of Zymozan A (Sigma Chemical Company, St. Louis, Mo.) at 37° C. for 60 min, after which the zymozan was removed.\nRat monocytes and neutrophils were isolated and labeled as described in Example 6, supra. Male Lewis rats were administered intravenously with 50 mg/kg Ajoene (treatment group) or its vehicle (control), followed within 2-3 min by infusion of the labeled cells. Immediately afterwards, the skin on the back of all animals was shaved and the inflammatory stimuli and the diluent control were injected intradermally at several sites of the skin of each animal. Two hours later, 1 ml of blood was taken from each rat, and the animals were sacrificed. The dorsal skin, including the area of dermal inflammatory reactions, was removed and frozen, and the injected skin sites were punched out with a 12-mm punch and counted in a gamma spectrometer (model 1280, LXB Instruments)."}, "Jurkat cells": {"tested_on": "Jurkat cells", "experiment": "Disruption of cell clusters formed by Jurkat cells in culture", "assay_type": "cell-based", "conditions": "Homo sapiens, 16 to 24 h", "procedure": "as §1, §2"}}}
{"smiles": "C=CCSSC=CC[S+]([O-])CC=C", "note": "(centres unmarked) [Ajoene, 4,5,9-trithiadodeca-1,6,11-triene-9-oxide]", "values": [{"measurement": "IC50", "setting": "H9 cells", "value": "~50", "unit": "nM"}, {"measurement": "IC100", "setting": "[1]; Neutrophil, stimulus N-formyl-L-methionyl-L-leucyl-L-phenylalanine 10^-7 M", "value": "~10", "unit": "µM"}, {"measurement": "deaggregation of aggregated neutrophils", "setting": "[1]; added to aggregated neutrophils", "value": "caused rapid deaggregation"}, {"measurement": "IC50", "setting": "[2]", "value": 125, "unit": "µM"}, {"measurement": "toxic effects on the cells", "setting": "MT-4 cells", "value": "without any toxic effects on the cells"}, {"measurement": "IC50", "setting": "platelets (GP IIb/IIIa)", "value": "~50", "unit": "µM"}, {"measurement": "IC50", "setting": "HIV-1RF", "value": 25, "unit": "µM"}, {"measurement": "Accumulation of 111In-labeled Neutrophils (mean ± SEM)", "setting": "[3]; 10 ng TNF, P < 0.006", "value": "1,289 cpm per inflammatory locus"}, {"measurement": "inhibition of neutrophil migration to loci of acute cutaneous inflammation", "setting": "[3]", "value": "30-40%"}, {"measurement": "Accumulation of 111In-labeled Neutrophils (mean ± SEM)", "setting": "[3]; 25% ZAS, P < 0.001", "value": "5,558 cpm per inflammatory locus"}, {"measurement": "Accumulation of 111In-labeled Neutrophils (mean ± SEM)", "setting": "[3]; 50% ZAS, P < 0.001", "value": "7,926 cpm per inflammatory locus"}, {"measurement": "Accumulation of 111In-labeled Neutrophils (mean ± SEM)", "setting": "[3]; 300 U IFN, P < 0.060", "value": "160 cpm per inflammatory locus"}, {"measurement": "Accumulation of 111In-labeled Neutrophils (mean ± SEM)", "setting": "[3]; diluent control stimulus, N.S.", "value": "53 cpm per inflammatory locus"}, {"measurement": "IC50", "setting": "Jurkat cells", "value": "~50", "unit": "nM"}]}
